For experiment [1], the target named is T1, PRMT5 (Homo sapiens, UniProt O14744).
T1 construct: purchased Viva (custom protein)
The experiment can be described thus: PRMT5 biochemical IC50 assay with SAM as cofactor. Particulars: PRMT5, SAM as cofactor; read-out: SAM IC50.

The target of experiment [2] is T1, PRMT5. The experiment can be described thus: PRMT5 biochemical IC50 assay with no cofactor. The following applies: PRMT5, no cofactor; read-out: No Cofactor/ rel IC50. An excerpt:
Table 1 indicates IC50 values (μM) against PRMT5 for exemplary compounds in the presence of SAM as cofactor, with no cofactor, and with MTA as cofactor, respectively (columns 4-6). […] Ki values can be calculated from the IC50 values as described in the Examples section. As detailed in the Examples section, for the assay performed in the presence of SAM, IC50=Ki×1.5 (Ki=IC50/1.5).

Experiment [3] has as its target T1, PRMT5. The experiment can be described thus: PRMT5 biochemical IC50 assay with MTA as cofactor. The following applies: PRMT5, MTA as cofactor; read-out: MTA IC50.
The test system of experiment [4] is HAP1 MTAP-intact cell line. The experiment can be described thus: SDMA in-cell western assay, HAP1 MTAP-intact. The class given is cell-based. The following applies: Homo sapiens, HAP1, SDMA in-cell western, HAP1 MTAP-intact; read-out: MTAP HAP1 intact IC50. The procedure, abridged:
(§1)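 MTAP-null vs endogenous-MTAP HAP1 isogenic cells; in-cell western SDMA readout; IC50 per line.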

The subject of experiment [5] is HAP1 MTAP-deleted cell line. The experiment can be described thus: SDMA in-cell western assay, HAP1 MTAP-deleted. Particulars: for IC50: Homo sapiens, HAP1, SDMA in-cell western, HAP1 MTAP-deleted, read-out: HAP 1 MTAP deleted IC50; for MTAP intact/deleted ratio: IC50 ratio HAP1 MTAP-intact / HAP1 MTAP-deleted, SDMA in-cell western. Type of experiment: cell-based. The procedure, abridged:
as §1

Experiment [6] concerns HAP1 MTAP-deleted cell line. The experiment can be described thus: Viability assay, MTAP-deleted cell line. Type of experiment: cell-based. The following applies: Homo sapiens, HAP1, viability, HAP1 MTAP-deleted cell line; read-out: HAP1 MTAP deleted viability. An excerpt: Table 1 additionally indicates IC50 values in a viability assay for the MTAP-deleted cell line (column 10), indicating the effect of treatment with compound on cell survival.

The results in this text go back to patent US11999727B2 (Tango Therapeutics, Inc., priority 2020, dated 2024).

T1 sequence (O14744 whole entry): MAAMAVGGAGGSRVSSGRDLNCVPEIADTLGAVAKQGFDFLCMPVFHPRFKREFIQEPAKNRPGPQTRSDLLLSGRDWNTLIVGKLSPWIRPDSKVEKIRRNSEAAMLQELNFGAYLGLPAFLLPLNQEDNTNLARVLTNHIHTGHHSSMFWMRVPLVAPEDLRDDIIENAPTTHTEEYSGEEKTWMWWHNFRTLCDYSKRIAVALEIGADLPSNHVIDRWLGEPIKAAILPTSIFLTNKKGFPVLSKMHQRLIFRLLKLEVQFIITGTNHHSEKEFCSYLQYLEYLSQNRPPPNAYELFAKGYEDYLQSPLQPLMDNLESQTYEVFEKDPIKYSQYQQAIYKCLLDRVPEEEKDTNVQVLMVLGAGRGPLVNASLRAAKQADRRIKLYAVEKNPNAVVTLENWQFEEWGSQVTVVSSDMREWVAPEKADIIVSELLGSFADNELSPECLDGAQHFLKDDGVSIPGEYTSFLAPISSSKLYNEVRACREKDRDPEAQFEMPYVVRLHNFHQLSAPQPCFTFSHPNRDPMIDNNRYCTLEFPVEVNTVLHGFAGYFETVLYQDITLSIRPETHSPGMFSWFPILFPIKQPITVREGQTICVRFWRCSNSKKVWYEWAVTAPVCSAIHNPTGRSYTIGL
T1 sequence (Q9BQA1 whole entry partner): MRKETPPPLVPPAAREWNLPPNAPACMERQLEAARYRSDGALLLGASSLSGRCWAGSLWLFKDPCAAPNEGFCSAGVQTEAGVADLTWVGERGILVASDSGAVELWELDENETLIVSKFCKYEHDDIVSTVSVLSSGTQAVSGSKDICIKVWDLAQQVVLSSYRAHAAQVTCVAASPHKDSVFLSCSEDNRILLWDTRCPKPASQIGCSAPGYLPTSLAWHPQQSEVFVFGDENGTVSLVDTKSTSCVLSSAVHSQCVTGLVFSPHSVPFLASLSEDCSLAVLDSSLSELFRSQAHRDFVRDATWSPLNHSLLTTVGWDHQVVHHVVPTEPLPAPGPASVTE

Regarding `CCc1cc(NC(=O)C(=O)N2C[C@@H](C)CC[C@@H]2c2ccc3sc(CN(CC)C(C)C)nc3c2)cnc1N` [Compound 1380, N-(6-amino-5-ethylpyridin-3-yl)-2-((2R,5S)-2-(2-((ethyl(isopropyl)amino)methyl)benzo[d]thiazol-5-yl)-5-methylpiperidin-1-yl)-2-oxoacetamide], the IC50 was 50 to 500 nM on PRMT5 [1]; < 50 nM at PRMT5 [2]; < 50 nM on PRMT5 [3]; 100 to 1000 nM in experiment [4]; < 100 nM in experiment [5]; < 1000 nM in experiment [6]. Also, the “MTAP intact/deleted ratio” value in experiment [5] was “A (an IC50 ratio greater than or equal to 10 fold)”.
Regarding `CCc1cc(NC(=O)C(=O)N2C[C@@H](C)CC[C@@H]2c2ccc3sc(C4CCN(C)CC4C)nc3c2)cnc1N` (stereo partly drawn) [Compound 1382, N-(6-amino-5-ethyl-3-pyridyl)-2-[(5S)-2-[2-(1,3-dimethyl-4-piperidyl)-1,3-benzothiazol-5-yl]-5-methyl-1-piperidyl]-2-oxo-acetamide], the IC50 on PRMT5 [1] is < 50 nM; on PRMT5 [2], < 50 nM; at PRMT5 [3], < 50 nM; in experiment [4], < 100 nM; in experiment [5] it was < 100 nM; in experiment [6], < 1000 nM. Further, in experiment [5], the “MTAP intact/deleted ratio” value is “A (an IC50 ratio greater than or equal to 10 fold)”.
Regarding `CCc1cc(NC(=O)C(=O)N2C[C@@H](C)CC[C@@H]2c2ccc3sc(C4CCN(C)C4)nc3c2)cnc1N` (stereo partly drawn) [Compound 1383], the IC50 at PRMT5 [1] was < 50 nM; at PRMT5 [2], < 50 nM; at PRMT5 [3] it was < 50 nM; in experiment [4], < 100 nM; in experiment [5], < 100 nM; in experiment [6], < 1000 nM. The “MTAP intact/deleted ratio” value in experiment [5] is “A (an IC50 ratio greater than or equal to 10 fold)”.
In the case of `CCc1cc(NC(=O)C(=O)N2C[C@@H](C)CC[C@@H]2c2ccc3sc([C@H]4CN(C)C(=O)CN4C)nc3c2)cnc1N` [Compound 1385], the IC50 is 50 to 500 nM at PRMT5 [1]; < 50 nM on PRMT5 [2]; < 50 nM on PRMT5 [3]; < 100 nM in experiment [4]; < 100 nM in experiment [5]; < 1000 nM in experiment [6]. Further, the “MTAP intact/deleted ratio” value in experiment [5] is listed as “A (an IC50 ratio greater than or equal to 10 fold)”.
Turning to `Cc1cc(NC(=O)C(=O)N2C[C@@H](C)CC[C@@H]2c2ccc3sc(CCN4CCOCC4)nc3c2)cnc1N` [Compound 1387, N-(6-amino-5-methylpyridin-3-yl)-2-((2R,5S)-5-methyl-2-(2-(2-morpholinoethyl)benzo[d]thiazol-5-yl)piperidin-1-yl)-2-oxoacetamide], the IC50 at PRMT5 [1] was 50 to 500 nM; on PRMT5 [2] it was < 50 nM; on PRMT5 [3], < 50 nM; in experiment [4], < 100 nM; in experiment [5] it was < 100 nM; in experiment [6], < 1000 nM. For the same molecule, in experiment [5], the “MTAP intact/deleted ratio” value was “B (an IC50 ratio greater than or equal to 3 fold but lower than 10 fold)”.
Turning to `CCc1cc(NC(=O)C(=O)N2C[C@@H](C)CC[C@@H]2c2ccc3sc([C@H]4CCCN(C)C4)nc3c2)cnc1N` [Compound 1388, N-(6-amino-5-ethylpyridin-3-yl)-2-((2R,5S)-5-methyl-2-(2-(1-methylpiperidin-3-yl)benzo[d]thiazol-5-yl)piperidin-1-yl)-2-oxoacetamide], the IC50 was < 50 nM at PRMT5 [1]; < 50 nM at PRMT5 [2]; < 50 nM on PRMT5 [3]; < 100 nM in experiment [4]; < 100 nM in experiment [5]; < 1000 nM in experiment [6]. The “MTAP intact/deleted ratio” value in experiment [5] is “A (an IC50 ratio greater than or equal to 10 fold)”.
Consider `CCc1cc(NC(=O)C(=O)N2C[C@@H](C)CC[C@@H]2c2ccc3sc(-c4ccnn4C)nc3c2)cnc1N` [Compound 1389, N-(6-amino-5-ethylpyridin-3-yl)-2-((2R,5S)-5-methyl-2-(2-(1-methyl-1H-pyrazol-5-yl)benzo[d]thiazol-5-yl)piperidin-1-yl)-2-oxoacetamide], for which the IC50 at PRMT5 [1] was 50 to 500 nM; on PRMT5 [2] it was < 50 nM; on PRMT5 [3], < 50 nM; in experiment [4] it was 100 to 1000 nM; in experiment [5], < 100 nM; in experiment [6], < 1000 nM. Moreover, the “MTAP intact/deleted ratio” value in experiment [5] was “A (an IC50 ratio greater than or equal to 10 fold)”.
For the molecule `CCc1cc(NC(=O)C(=O)N2C[C@@H](C)CC[C@@H]2c2ccc(N3CCN(C)CC3)c(C)c2)cnc1N` [Compound 1390, N-(6-Amino-5-ethyl-3-pyridyl)-2-[(2R,5S)-5-methyl-2-[3-methyl-4-(4-methylpiperazin-1-yl)phenyl]-1-piperidyl]-2-oxo-acetamide], the IC50 on PRMT5 [1] was 50 to 500 nM; at PRMT5 [2], 50 to 500 nM; at PRMT5 [3], < 50 nM; in experiment [4], 100 to 1000 nM; in experiment [5] it was < 100 nM; in experiment [6] it was < 1000 nM. In addition, the “MTAP intact/deleted ratio” value in experiment [5] is recorded as “A (an IC50 ratio greater than or equal to 10 fold)”.
Turning to `CCc1cc(NC(=O)C(=O)N2C[C@@H](C)CC[C@@H]2c2cccc(OCCN3CCCC3)c2)cnc1N` [Compound 1391, N-(6-amino-5-ethylpyridin-3-yl)-2-((2R,5)-5-methyl-2-(3-(2-(pyrrolidin-1-yl)ethoxy)phenyl)piperidin-1-yl)-2-oxoacetamide], the IC50 is < 50 nM on PRMT5 [1]; < 50 nM at PRMT5 [2]; < 50 nM on PRMT5 [3]; 100 to 1000 nM in experiment [4]; < 100 nM in experiment [5]; < 1000 nM in experiment [6]. Moreover, the “MTAP intact/deleted ratio” value in experiment [5] was “A (an IC50 ratio greater than or equal to 10 fold)”.
In the case of `CCc1cc(NC(=O)C(=O)N2[C@@H](c3ccc4sc(C5CCN(C)CC5)nc4c3)CCC[C@@H]2C)cnc1N` [Compound 1395], the IC50 on PRMT5 [1] is 50 to 500 nM; on PRMT5 [2], < 50 nM; at PRMT5 [3], < 50 nM; in experiment [4] it was < 100 nM; in experiment [5] it was < 100 nM; in experiment [6] it was < 1000 nM. In addition, in experiment [5], the “MTAP intact/deleted ratio” value is on record as “A (an IC50 ratio greater than or equal to 10 fold)”.
For the molecule `CCc1cc(NC(=O)C(=O)N2C[C@@H](C)CC[C@@H]2c2ccc3sc(CC4(N(C)C)COC4)nc3c2)cnc1N` [Compound 1399, N-(6-amino-5-ethylpyridin-3-yl)-2-((2R,5S)-2-(2-((3-(dimethylamino)oxetan-3-yl)methyl)benzo[d]thiazol-5-yl)-5-methylpiperidin-1-yl)-2-oxoacetamide], the IC50 at PRMT5 [1] was 50 to 500 nM; at PRMT5 [2], < 50 nM; at PRMT5 [3], < 50 nM; in experiment [4] it was 100 to 1000 nM; in experiment [5], < 100 nM; in experiment [6], < 1000 nM. Further, the “MTAP intact/deleted ratio” value in experiment [5] is on record as “A (an IC50 ratio greater than or equal to 10 fold)”.
On to `CCc1cc(NC(=O)C(=O)N2C[C@@H](C)CC[C@@H]2c2ccc(N3CCCC4(CCN(C)CC4)C3)cc2)cnc1N` [Compound 1401, N-(6-Amino-5-ethyl-3-pyridyl)-2-[(2R,5S)-5-methyl-2-[4-(9-methyl-2,9-diazaspiro[5.5]undecan-2-yl)phenyl]-1-piperidyl]-2-oxo-acetamide], for which the IC50 at PRMT5 [1] is 50 to 500 nM; on PRMT5 [2], < 50 nM; on PRMT5 [3] it was < 50 nM; in experiment [4], 100 to 1000 nM; in experiment [5], < 100 nM; in experiment [6], < 1000 nM. In addition, in experiment [5], the “MTAP intact/deleted ratio” value is recorded as “A (an IC50 ratio greater than or equal to 10 fold)”.
